Laboratory results as given in patent US20100130598A1, “METHODS FOR INDUCING PROGRAMMED CELL DEATH” (Novogen Research Pty Ltd., priority 2008, published 2010).
Converted amounts (≈) assume the structure as drawn.

Assays:
PANC-1 cells [1] = experiment: Mitochondrial membrane potential by FACS (JC-1), PANC-1; type: cell-based, human; details: PANC-1, dose-dependent, 48 hrs of treatment
Description: (§1) Cells. Human pancreatic cell lines HPAC, MIAPaCa-2 and PANC-1 were obtained from the ATCC. (Manassas, Va.). The cells were maintained in DMEM media with Gln and high glucose (Mediatech, Manassas, Va.) with 10% fetal bovine serum (FBS, HyClone, Logan, Utah) and pencillin/streptomycin.
(§2) FACS Analysis. Apoptosis was measured by FACS analysis using Annexin-V-FITC and propidium iodide (PI) (Biovision, Mountain View, Calif.) as probes (Ahn et al., 2003). Mitochondrial membrane potential was measured by FACS analysis using JC-1 (Biovision) as a probe (Ahn et al., 2003). Cell cycle was analyzed on ethanol-fixed, RNaseA-treated cells staining with PI. In each spectrum, 10,000 gated events were recorded and analyzed with a FACSCalibur (BD Biosciences. San Jose, Calif.). All experiments were done in triplicate, error bars represent one standard deviation. Caspase inhibitor I (zVAD-fmk) was obtained from Calbiochem.

MIAPaCa-2 cells [2] = experiment: Apoptosis/necrosis by FACS (Annexin-V-FITC/PI), MIAPaCa-2; type: cell-based, human
Description: as §1, §2

MIAPaCa-2 cells [3] = experiment: Cell cycle analysis by FACS (PI), MIAPaCa-2; type: cell-based, human; details: MIAPaCa-2, 10 μM
Description: as §1, §2

PANC-1 cells [4] = experiment: Apoptosis/necrosis by FACS (Annexin-V-FITC/PI), PANC-1; type: cell-based, human; details: PANC-1, dose-escalating, 48 hr exposure
Description: as §1, §2

EOC cells [5] = experiment: Cell viability assay (CellTiter 96 AQueous One); type: cell-based, human
Source text: (§3) Cell lines and culture conditions. Established human EOC cell lines, A2780 and A2780/CP70 (gifts from Dr. T C Hamilton) (Behrens et al, 1997) were propagated in RPMI plus 10% fetal bovine serum (Gemini Bio-Products, Woodland, Calif.). Primary EOC cell lines were isolated from malignant ovarian ascites or explanted from ovarian tumors and cultured as previously described (Alvero et al, 2006). Purity of the EOC cells was 100% as determined by immuno-staining for cytokeratin 7 antigen. All cell lines were grown at 37° C. in a 5% CO2 atmosphere.
Cell viability assay. Cell viability was determined as previously reported (Alvero et al., 2006). Briefly, cells (5×10^3) were plated in triplicate wells in a […] volume per well of a 96-well microtiter plate (BD Biosciences/Pharmingen, San Diego, Calif.). The cells were grown to 70% confluence and then incubated in reduced-serum phenol-depleted Opti-MEM medium (Invitrogen-GIBCO, Carlsbad, Calif.) for 4 h prior to treatment. Compound 1 (Novogen, Inc., NSW, Australia) was added to the medium from 10 mg/ml stock to give various final concentrations as described in the results section. Following 24 h treatment, cell viability was evaluated using the CellTiter 96® AQueous One Solution Cell Proliferation Assay (Promega Corporation, Madison, Wis.) according to the manufacturer's instructions. Optical densities of the samples were measured at 490 nm using an automatic microplate reader (Model 550, Bio-Rad, Hurcules, Calif.). The values from the treated cells were compared with the values generated from the untreated control and reported as percent viability. Each experiment was done in triplicate.
For experiments using the caspase inhibitor, Z-VAD-FMK (Sigma Aldrich, St. Louis, Mo.), the inhibitor was added to the cultures 30 mins prior to treatment to yield a final concentration of 20 μM. […]

[6] = tested on: phospho-S6 kinase (p-S6K); experiment: Western blot of lysed xenograft tumors for p-S6k; type: in vivo, NCR nude mice; details: tumors from treated animals vs vehicle control
Description: SDS-PAGE and Western blots. Cell lysates (20 μg protein) were denatured in sample buffer (2.5% SDS, 10% glycerol, 5% β-mercapto-ethanol, 0.15 M Tris (pH=6.8) and 0.01% bromophenol blue) and subjected to 12% SDS-PAGE as previously described (Kamsteeg et al, 2003). The following antibodies and concentrations were used: mouse anti-XIAP (BD, 1:1,000), rabbit anti-MAP LC3 (1:200), rabbit anti-actin (Sigma, 1:10,000), rabbit anti-phosphorylated Akt (Cell Signaling, 1:1,000), rabbit anti-Akt (Cell Signaling, 1:1000), rabbit anti-phosphorylated mTOR (Cell Signaling, 1:1000), rabbit anti-mTOR (Cell Signaling, 1:1000), rabbit anti-cytochrome c (Clontech Laboratories, Inc, Mountainview, Calif., 1:100), rabbit anti-Omi (R&D Systems, Minneapolis, Minn., 1:5000), rabbit anti-Bid (Cell Signaling, 1:1000), mouse anti-Bax (BD Pharmingen, 1:250), rabbit anti-VDAC (Sigma Aldrich, 1:2000), mouse anti-Bcl2 (BD Pharmingen, 1:500), rabbit anti-AIF (Sigma Aldrich, 1:1000), rabbit anti-EndoG (Sigma Aldrich, 1:1000), mouse anti-topoisomerase I (BD Pharmingen, 1:10,000). Proteins were visualized using enhanced chemiluminescence (Pierce, Rockford Ill.).
Mouse xenograft studies. […] Tumor size was determined by caliper measurements and anti-tumor activity was analyzed with respect to maximal tumor inhibition (treated/control, T/C) as described previously (Kamsteeg et al, 2003).

EOC cells [7] = experiment: Flow cytometry with Hoechst and Propidium iodide staining (DNA fragmentation); type: cell-based, human; details: Compound 1 10 g/ml (as printed, FIG. 1B legend), 24 h
Source text: as §3
Flow cytometry with Hoechst and Propidium iodide staining. After treatment, cells were trypsinized, washed twice with PBS, and resuspended at 1×10^6 cells/ml. Cells were then stained with 5 μg/ml Hoechst 33342 (Invitrogen-Molecular Probes, Carlsbad, Calif.) and 1 μg/ml Propidium iodide (Sigma Aldrich) and incubated for 15 mins in the dark. Afterwards, data was acquired using BD LSR II System and analyzed using FloJo FACS analysis software (Tree Star, Inc., Ashland, Oreg.).

EOC tumors = experiment: Mouse EOC xenograft study; type: in vivo
Description: Mouse xenograft studies. The in vivo study as approved by the Yale University Institutional Animal Care & Use Committee. Cells (1×10^6 cells) were resuspended in 200 μ1 total volume of 50% RPMI and 50% BD Matrigel Matrix (BD Biosciences, Bedford, Mass.) and injected subcutaneously into the right flank of NCR nude mice. Intra-peritoneal therapy commenced eight days post-inoculation as follows: Paclitaxel 10 mg/kg q×3d, Carboplatin 40 mg/kg q×7d, and Compound 1 in 20% HPBCD, 100 mg/kg every day. Control groups received 20% HPBCD in PBS. Mice were treated and observed for 3 weeks. Tumor size was determined by caliper measurements and anti-tumor activity was analyzed with respect to maximal tumor inhibition (treated/control, T/C) as described previously (Kamsteeg et al, 2003).

[8] = MIAPaCa-2, dose-escalating, 48 hr exposure

Question: `COc1ccc(C2c3ccc(O)cc3OCC2c2ccc(O)cc2)cc1` (stereo not shown) [Compound 10, 3-(4-hydroxyphenyl)-4-(4-methoxyphenyl)chroman-7-ol] was tested. Which mitochondrial depolarization (PANC-1 cells [1]) did it give?
Answer: The mitochondrial depolarization was “depolarized”.

Question: And the “effect of zVAD-fmk pre-treatment on induced necrosis” value (MIAPaCa-2 cells [2]; MIAPaCa-2, 10 μM zVAD-fmk 1 h before 10 μM Compound 10)?
Answer: Its value is “inhibited”.

Question: And the “effect of zVAD-fmk pre-treatment on induced apoptosis” value (MIAPaCa-2 cells [2]; MIAPaCa-2, 10 μM zVAD-fmk 1 h pre-treatment, 10 μM Compound 10 or 50 ng/mL TRAIL)?
Answer: The value was “apparently enhanced”.

Question: What about the apoptosis (MIAPaCa-2 cells [2]; [8]) of the same compound?
Answer: The apoptosis was “induced apoptosis in a dose-dependent fashion”.

Question: What about the necrosis (MIAPaCa-2 cells [2]; [8]) of the same compound?
Answer: Its necrosis is “Very little necrosis”.

Question: What about the “time of entering G2/M arrest post treatment” value (MIAPaCa-2 cells [3]) of the same compound?
Answer: Its value is 24 to 48 h.

Question: What about the apoptosis (PANC-1 cells [4]) of the same compound?
Answer: Its apoptosis is “induced apoptosis in a dose-dependent fashion”.

Question: What about the necrosis (PANC-1 cells [4]) of the same compound?
Answer: The necrosis was “Very little necrosis”.

Question: For `COc1ccc(C2c3ccc(O)c(C)c3OCC2c2ccc(O)cc2)cc1` (stereo not shown) [Compound 1, 3-(4-hydroxyphenyl)-4-(4-methoxyphenyl)-8-methylchroman-7-ol], which “effect of autophagy inhibitor 3-MA on compound-induced cell death” value (EOC cells [5]; Compound 1 10 μg/ml, 3 MA (10 μM)) is on record?
Answer: Its value is “not able to inhibit”.

Question: What about the GI50 (EOC cells [5]; Homo sapiens, primary EOC cultures, paclitaxel-sensitive and paclitaxel-resistant (R182, R456), 24 h, read-out: GI50 (reduction in percentage of viable cells)) of the same compound?
Answer: Its GI50 is 5 to 10 µg/mL (≈ 13.8 to 27.6 µM).

Question: And the “impact of pan-caspase inhibitor Z-VAD-FMK on compound-induced cell death” value (EOC cells [5]; Z-VAD-FMK 20 μM, increasing concentrations of Compound 1, 24 h)?
Answer: The value was “no impact”.

Question: What about the p-S6k in tumors [6] of the same compound?
Answer: Its p-S6k in tumors is “significant decrease”.

Question: What about the “cells staining positively for both Hoechst and PI (fragmented DNA)” value (EOC cells [7]) of the same compound?
Answer: The value was 95%.

Question: What about the “tumor proliferation kinetics, final tumor size and volume” value (EOC tumors; dose-dependent, compared to carboplatin and paclitaxel) of the same compound?
Answer: Its value is “significant decrease”.

Question: What about the “T/C values (maximal tumor inhibition, treated/control)” value (EOC tumors; intra-peritoneal, 3 weeks, Compound 1 100 mg/kg every day, Carboplatin 40 mg/kg q×7d, Paclitaxel 10 mg/kg q×3d) of the same compound?
Answer: Its value is 30%.

Question: And the toxic side effects (EOC tumors; mouse, in vivo)?
Answer: Its toxic side effects is “No toxic side effects”.
